Columns and labels:
[1] = Hydration study (stirring in ethanol: water mixtures, XRPD); assay type: physicochemical
Description: (§1) 20 mg of osanetant p-toluenesulfonic acid Form 1 was stirred in the appropriate ethanol: water mixtures for 24 h at 25° C. Where clear solutions were observed after 1 h at 25° C., 0.5 mL of liquor was removed, and additional solid was added until a slurry was maintained. After 24 h total, the experiments were isolated by centrifugation, and the solids were analyzed by XRPD.
as §1, with “Osanetant benzenesulfonic acid” for “20 mg of osanetant p-toluenesulfonic acid”, “Form 3 (20 mg)” for “Form 1”, “was removed from the Aw 0.257 sample,” for “was removed,”

[2] = Long term stability: acid stability (2M HCl) at ambient temperature; assay type: physicochemical; conditions: 2M HCl, dark, ambient, up to 14 days
Description: Osanetant p-toluenesulfonic acid Form 1 and osanetant benzenesulfonic acid Form 1 were tested for long-term stability across a number of different conditions, as detailed below.
Acid Stability at Ambient Temperature-Osanetant p-toluenesulfonic acid Form 1 and osanetant benzenesulfonic acid Form 1 were prepared at an osanetant content 10 times the normal working concentration then added to HPLC vials containing 2M HCl and stored in the dark at ambient laboratory conditions. Samples were diluted to 2 mg/mL for analysis and were taken after T=1, 2, 4, 7, and 14 days storage. […] The purity of the resulting material is described in Table 42: […]

CC(=O)N(C)C1(c2ccccc2)CCN(CCC[C@]2(c3ccc(Cl)c(Cl)c3)CCCN(C(=O)c3ccccc3)C2)CC1.Cc1ccc(S(=O)(=O)O)cc1 [osanetant p-toluenesulfonic acid Form 1, (R)-N-(1-(3-(1-benzoyl-3-(3,4-dichlorophenyl)piperidin-3-yl)propyl)-4-phenylpiperidin-4-yl)-N-methylacetamide p-toluenesulfonic acid]
XRPD form after stirring in ethanol: water mixtures ([1]; 24 h at 25° C., all mixtures tested): no change in form
XRPD ([1]; slurry in ethanol:water 63.6:36.4 % v/v, calc Aw 0.745, 24 h at 25° C.): Form 1
XRPD ([1]; slurry in ethanol:water 92.9:7.1 % v/v, calc Aw 0.507, 24 h at 25° C.): Form 1
XRPD ([1]; slurry in ethanol:water 98.4:1.6 % v/v, calc Aw 0.257, 24 h at 25° C.): Form 1
degradation on storage (purity) [2]: lack of degradation

— patent US20240336565A1, “SOLID FORMS OF OSANETANT” (Acer Therapeutics, Inc., priority 2021, published 2024)
